Source: BindingDB's records for patent WO2022115301 (MERCK SHARP & DOHME LLC, 2022)

Biological target: T1, Ceramide glucosyltransferase (Homo sapiens, UniProt Q16739)
T1 sequence (Q16739 whole entry): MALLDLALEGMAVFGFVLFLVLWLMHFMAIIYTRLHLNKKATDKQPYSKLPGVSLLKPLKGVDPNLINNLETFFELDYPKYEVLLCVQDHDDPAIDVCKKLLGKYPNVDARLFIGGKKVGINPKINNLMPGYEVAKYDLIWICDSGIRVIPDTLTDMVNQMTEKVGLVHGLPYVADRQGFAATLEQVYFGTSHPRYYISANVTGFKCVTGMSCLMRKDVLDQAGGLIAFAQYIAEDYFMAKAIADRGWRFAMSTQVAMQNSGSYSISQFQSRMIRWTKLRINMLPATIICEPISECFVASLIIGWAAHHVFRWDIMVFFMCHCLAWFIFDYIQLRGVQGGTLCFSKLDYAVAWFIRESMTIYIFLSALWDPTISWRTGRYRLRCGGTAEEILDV
Assay: UDP-Glo Glucosylceramide Synthase Biochemical Assay
Method: Using Promega s UDP-Glo Glycosyltransferase assay kit (Promega Corporation, Madison, WI, USA (Promega)), GCS activity was indirectly measured by detecting the amount of UDP produced. An aliquot of GCS enzyme (1.5 µg crude golgi preparation, total protein) and titrated test compound were aliquoted to each well and incubated for 30 minutes at room temperature. […] An equivalent volume of substrate mixture was then added to each well. Following a 20 h incubation at room temperature to allow for GCS turnover of substrate, an equal volume of UDP detection reagent (Promega) was added to each well and incubated for an additional 75 minutes at room temperature to simultaneously convert the accumulated UDP product into ATP and generate light in a luciferase reaction. The generated light was detected using a luminometer. […] luminescence values (RLUs) were normalized to mean min and max effects, as determined on each plate. […] See Levenberg, K., A Method for the Solution of Certain Problems in Least Squares , Quart. Appl.

Structure (SMILES) | EC50 [nM]
CC(C)(O)[C@@H](C1CC1)N1Cc2cccc(-c3cccc(OCC(F)(F)F)c3)c2C1=O [WO2022115301, Example 14] | 48
Cc1nnc(-c2ccc(-c3cccc4c3C(=O)N([C@H](C3CC3)C(C)(C)O)C4)cc2F)o1 [WO2022115301, Example 9] | 24
COc1cc(Cl)cc(-c2cccc3c2C(=O)N([C@H](C2CC2)C(C)(C)O)C3)c1 [WO2022115301, Example 10] | 2.8
Cn1cc(-c2ccc(-c3cc(F)cc4c3C(=O)N([C@H](C3CC3)C(C)(C)O)C4)cc2)cn1 [WO2022115301, Example 24] | 0.93
Cn1c(=O)n(C)c2cc(-c3cccc4c3C(=O)N([C@H](C3CC3)C(C)(C)O)C4)ccc21 [WO2022115301, Example 6] | 4.5
Cc1n[nH]c2cc(F)c(-c3cccc4c3C(=O)N([C@H](C3CC3)C(C)(C)O)C4)cc12 [WO2022115301, Example 11] | 4.9
CC(C)(O)[C@@H](C1CC1)N1Cc2cccc(-c3ccc(-n4nccn4)cc3)c2C1=O [WO2022115301, Example 17] | 580
Cn1ncc2cc(-c3cccc4c3C(=O)N([C@H](C3CC3)C(C)(C)O)C4)ccc21 [WO2022115301, Example 12] | 13
Cn1cc(-c2ccc(-c3cccc4c3C(=O)N([C@H](C3CC3)C(C)(C)O)C4)cc2)cn1 [WO2022115301, Example 15] | 6.4
CC(C)(O)[C@@H](C1CC1)N1Cc2cccc(-c3ccccc3OCC(F)(F)F)c2C1=O [WO2022115301, Example 7] | 3.6
CC(C)(O)[C@@H](C1CC1)N1Cc2cccc(-c3ccc(-c4nnco4)cc3)c2C1=O [WO2022115301, Example 5] | 52
COc1cc(C#N)cc(-c2cccc3c2C(=O)N([C@H](C2CC2)C(C)(C)O)C3)c1 [WO2022115301, Example 8] | 7.5
CN1Cc2cc(-c3cc(F)cc4c3C(=O)N([C@H](C3CC3)C(C)(C)O)C4)ccc2C1=O [WO2022115301, Example 25] | 9.2
CC(C)(O)[C@@H](C1CC1)N1Cc2cccc(-c3cccc4c3OC(F)(F)O4)c2C1=O [WO2022115301, Example 16] | 39
